Test results as given in patent US11246893B2, “Bacteriocin production, compositions and methods of use” (ISOThrive Inc., priority 2016, dated 2022).

What was measured:
[1] = tested on: Weissella viridescens NRRL B-1951; assay: tube assay, W. viridescens growth with nisin A or Z (absorbance); assay type: cell-based; settings: 15 Hr
Protocol: 100 g De-Man, Rogosa and Sharpe (MRS) media was prepared in a 500 mL Erlenmeyer to contain 5.5% solids in deionized water (18.2 MΩ, Hydro Service and Supplies. Gaithersburg, Md.). The media was autoclaved (121° C. 15 min), cooled, and inoculated with 1 mL (0.5 mL culture+0.5 mL glycerol, 40%; frozen at −78° C.) of Weissella viridescens NRRL B-1951 (test strain). The culture was incubated at 31° C. overnight (15 Hr).
The next day, stock solutions of either nisin A or Z were prepared in deionized water to contain 31.3 and 33.7 μg/g of each peptide.
100 g MRS media was prepared to contain 5.5% solids. Two sets (one set each for nisin A and nisin Z) of eight Hach-type tubes (Kimble Chase 45066-16100) were prepared. Within each set, in order was added 5.00, 4.95, 4.90, 4.75, 4.50, 4.00, 3.50 and 3.00 g MRS media. The tubes were sealed and autoclaved.
To each tube was added, of the appropriate nisin stock, 0.00, 0.05, 0.10, 0.25, 0.50, 1.00, 1.50, and 2.00 g. Each tube was inoculated with 0.25 g of late-log W. viridescens NRRL B-1951 culture. The tubes were sealed and the absorbance at 600 nm was quickly measured (Hach DR900). The tubes were segregated by set and incubated at 31° C. overnight (15 Hr).
Each tube was thoroughly mixed to suspend settled cells and the absorbance was measured again at 600 nm. The final absorbance values for each sample were corrected for their respective background (taken just after inoculation, scattered light from added cells). The corrected absorption values were a measure of W. viridescens growth.
As indicated above, the absorbance of the culture was measured again at 600 nm as a measure of W. viridescens growth, and the absorbance values for each sample were corrected for their respective background. These corrected absorption values plotted against nisin concentration and minimum inhibiting concentration approximated via regression.
The results were fit via four parameter logistic regression (4PLR), combined into a continuous function with a second assay set (0.65-9.99 μg/g), and are shown in FIG. 11A.

[2] = tested on: Weissella viridescens NRRL B-1951; assay: HPLC of tube supernatants: glucose consumption and organic acid production; assay type: cell-based; settings: for acetic acid in fermentation media: MRS media originally contained 7% acetate
Protocol: Each tube was sampled (1.5 mL conical polypropylene centrifuge tubes) and centrifuged at 10 kRPM for 10 minutes to remove and suspended cells. The resulting supernatants were filtered (0.2 μm nylon), diluted to 0.5% solids, and analyzed by high pressure liquid chromatography (HPLC, Agilent 1100, refractive index detector and BioRad Ainex HPX-87H column) for consumption of glucose and production of organic acids.
Note that the MRS media originally contained 7% acetate; therefore 7% should be subtracted from the values for acetate in Table 8 to ascertain the amount of acetate generated during the assay.

[3] = tested on: head/neck tumors; settings: mouse, in vivo; cited from earlier work

MSTKDFNLDLVSVSKKDSGASPRITSISLCTPGCKTGALMGCNMKTATCNCSIHVSN [nisin Z]
91516 ABS 610f ([1]; tube Z2, nisin Z 0.34 μg/g): 1.618 | Corrected ABS 610rs ([1]; tube Z2, nisin Z 0.34 μg/g): 1.146 | 91516 ABS 610f ([1]; tube Z3, nisin Z 0.77 μg/g): 1.526 | Corrected ABS 610rs ([1]; tube Z3, nisin Z 0.77 μg/g): 1.062 | 91516 ABS 610f ([1]; tube Z4, nisin Z 1.58 μg/g): 1.296 | Corrected ABS 610rs ([1]; tube Z4, nisin Z 1.58 μg/g): 0.841 | 91516 ABS 610f ([1]; tube Z5, nisin Z 3.19 μg/g): 0.801 | Corrected ABS 610rs ([1]; tube Z5, nisin Z 3.19 μg/g): 0.359 | 91516 ABS 610f ([1]; tube Z6, nisin Z 6.31 μg/g): 0.426 | Corrected ABS 610rs ([1]; tube Z6, nisin Z 6.31 μg/g): 0.003 | 91516 ABS 610f ([1]; tube Z7, nisin Z 9.54 μg/g): 0.384 | Corrected ABS 610rs ([1]; tube Z7, nisin Z 9.54 μg/g): 0.001 | 91516 ABS 610f ([1]; tube Z8, nisin Z 12.61 μg/g): 0.386 | Corrected ABS 610rs ([1]; tube Z8, nisin Z 12.61 μg/g): 0.001 | Maltotriose in fermentation media ([2]; tube Z2, nisin Z 0.34 μg/g): 0.282 %/brix | ethanol in fermentation media ([2]; tube Z2, nisin Z 0.34 μg/g): 0.057 %/brix | formic acid in fermentation media ([2]; tube Z2, nisin Z 0.34 μg/g): 0.303 %/brix | fructose in fermentation media ([2]; tube Z2, nisin Z 0.34 μg/g): 0.000 %/brix | glucose in fermentation media ([2]; tube Z2, nisin Z 0.34 μg/g): 22.988 %/brix | glycerol in fermentation media ([2]; tube Z2, nisin Z 0.34 μg/g): 0.343 %/brix | lactic acid in fermentation media ([2]; tube Z2, nisin Z 0.34 μg/g): 6.742 %/brix | maltose in fermentation media ([2]; tube Z2, nisin Z 0.34 μg/g): 0.722 %/brix | acetic acid in fermentation media ([2]; tube Z2, nisin Z 0.34 μg/g): 8.273 %/brix | Maltotriose in fermentation media ([2]; tube Z4, nisin Z 1.58 μg/g): 0.265 %/brix | ethanol in fermentation media ([2]; tube Z4, nisin Z 1.58 μg/g): 0.083 %/brix | formic acid in fermentation media ([2]; tube Z4, nisin Z 1.58 μg/g): 0.309 %/brix | fructose in fermentation media ([2]; tube Z4, nisin Z 1.58 μg/g): 0.000 %/brix | glucose in fermentation media ([2]; tube Z4, nisin Z 1.58 μg/g): 24.153 %/brix | glycerol in fermentation media ([2]; tube Z4, nisin Z 1.58 μg/g): 0.337 %/brix | lactic acid in fermentation media ([2]; tube Z4, nisin Z 1.58 μg/g): 5.081 %/brix | maltose in fermentation media ([2]; tube Z4, nisin Z 1.58 μg/g): 1.007 %/brix | acetic acid in fermentation media ([2]; tube Z4, nisin Z 1.58 μg/g): 8.247 %/brix | Maltotriose in fermentation media ([2]; tube Z5, nisin Z 3.19 μg/g): 0.311 %/brix | ethanol in fermentation media ([2]; tube Z5, nisin Z 3.19 μg/g): 0.067 %/brix | formic acid in fermentation media ([2]; tube Z5, nisin Z 3.19 μg/g): 0.281 %/brix | fructose in fermentation media ([2]; tube Z5, nisin Z 3.19 μg/g): 0.000 %/brix | glucose in fermentation media ([2]; tube Z5, nisin Z 3.19 μg/g): 24.698 %/brix | glycerol in fermentation media ([2]; tube Z5, nisin Z 3.19 μg/g): 0.321 %/brix | lactic acid in fermentation media ([2]; tube Z5, nisin Z 3.19 μg/g): 2.995 %/brix | maltose in fermentation media ([2]; tube Z5, nisin Z 3.19 μg/g): 0.750 %/brix | acetic acid in fermentation media ([2]; tube Z5, nisin Z 3.19 μg/g): 8.026 %/brix | Maltotriose in fermentation media ([2]; tube Z6, nisin Z 6.31 μg/g): 0.247 %/brix | ethanol in fermentation media ([2]; tube Z6, nisin Z 6.31 μg/g): 0.059 %/brix | formic acid in fermentation media ([2]; tube Z6, nisin Z 6.31 μg/g): 0.267 %/brix | fructose in fermentation media ([2]; tube Z6, nisin Z 6.31 μg/g): 0.000 %/brix | glucose in fermentation media ([2]; tube Z6, nisin Z 6.31 μg/g): 25.353 %/brix | glycerol in fermentation media ([2]; tube Z6, nisin Z 6.31 μg/g): 0.320 %/brix | lactic acid in fermentation media ([2]; tube Z6, nisin Z 6.31 μg/g): 1.351 %/brix | maltose in fermentation media ([2]; tube Z6, nisin Z 6.31 μg/g): 0.726 %/brix | acetic acid in fermentation media ([2]; tube Z6, nisin Z 6.31 μg/g): 7.969 %/brix | Maltotriose in fermentation media ([2]; tube Z7, nisin Z 9.54 μg/g): 0.291 %/brix | ethanol in fermentation media ([2]; tube Z7, nisin Z 9.54 μg/g): 0.065 %/brix | formic acid in fermentation media ([2]; tube Z7, nisin Z 9.54 μg/g): 0.263 %/brix | fructose in fermentation media ([2]; tube Z7, nisin Z 9.54 μg/g): 0.000 %/brix | glucose in fermentation media ([2]; tube Z7, nisin Z 9.54 μg/g): 25.501 %/brix | glycerol in fermentation media ([2]; tube Z7, nisin Z 9.54 μg/g): 0.335 %/brix | lactic acid in fermentation media ([2]; tube Z7, nisin Z 9.54 μg/g): 1.431 %/brix | maltose in fermentation media ([2]; tube Z7, nisin Z 9.54 μg/g): 0.895 %/brix | acetic acid in fermentation media ([2]; tube Z7, nisin Z 9.54 μg/g): 8.026 %/brix | Maltotriose in fermentation media ([2]; tube Z8, nisin Z 12.61 μg/g): 0.318 %/brix | ethanol in fermentation media ([2]; tube Z8, nisin Z 12.61 μg/g): 0.148 %/brix | formic acid in fermentation media ([2]; tube Z8, nisin Z 12.61 μg/g): 0.299 %/brix | fructose in fermentation media ([2]; tube Z8, nisin Z 12.61 μg/g): 0.000 %/brix | glucose in fermentation media ([2]; tube Z8, nisin Z 12.61 μg/g): 25.740 %/brix | glycerol in fermentation media ([2]; tube Z8, nisin Z 12.61 μg/g): 0.346 %/brix | lactic acid in fermentation media ([2]; tube Z8, nisin Z 12.61 μg/g): 1.652 %/brix | maltose in fermentation media ([2]; tube Z8, nisin Z 12.61 μg/g): 0.876 %/brix | acetic acid in fermentation media ([2]; tube Z8, nisin Z 12.61 μg/g): 8.261 %/brix | effect on tumors (in words) [3]: can reduce tumorigenesis in mice
